ChEMBL document CHEMBL5696441 (Nat Chem Biol, 2011)

Legend:
[1] = biological target: Cyclin-dependent kinase 7 (Homo sapiens) (UniProt P50613); assay: Inhibition of CDK7 (unknown origin) assessed as remaining activity at 1 uM by Kinome scan method relative to control
[2] = biological target: Ephrin type-A receptor 7 (Homo sapiens) (UniProt Q15375); assay: Inhibition of EPHA7 (unknown origin) assessed as remaining activity at 1 uM by Kinome scan method relative to control
[3] = test system: eIF-2-alpha kinase GCN2 (Homo sapiens), Q9P2K8 [S808G]; assay: Inhibition of GCN2 S808G mutant kinase domain 2 (unknown origin) assessed as remaining activity at 1 uM by Kinome scan method relative to control
[4] = biological target: Serine/threonine-protein kinase MAK (Homo sapiens) (UniProt P20794); assay: Inhibition of MAK (unknown origin) assessed as remaining activity at 1 uM by Kinome scan method relative to control
[5] = biological target: Ribosomal protein S6 kinase alpha-5 (Homo sapiens) (UniProt O75582); assay: Inhibition of N-terminal kinase domain RPS6KA5 (unknown origin) assessed as remaining activity at 1 uM by Kinome scan method relative to control
[6] = biological target: Ribosomal protein S6 kinase alpha-6 (Homo sapiens) (UniProt Q9UK32); assay: Inhibition of N-terminal kinase domain RPS6KA6 (unknown origin) assessed as remaining activity at 1 uM by Kinome scan method relative to control
[7] = biological target: Serine/threonine-protein kinase ULK1 (Homo sapiens) (UniProt O75385); assay: Inhibition of ULK1 (unknown origin) assessed as remaining activity at 1 uM by Kinome scan method relative to control
[8] = test system: Serine/threonine-protein kinase B-raf (Homo sapiens), P15056 [V600E]; assay: Inhibition of human BRAF V600E mutant assessed as residual activity at 1 uM using MEK1-K97M as substrate in presence of 33P-ATP by ProQinase assay relative to control
[9] = biological target: T1, Serine/threonine-protein kinase Chk1 (Homo sapiens) (UniProt O14757); assay: Inhibition of human CHK1 assessed as residual activity at 1 uM using RBER-CHKtide as substrate in presence of 33P-ATP by ProQinase assay relative to control
T1 sequence (whole entry): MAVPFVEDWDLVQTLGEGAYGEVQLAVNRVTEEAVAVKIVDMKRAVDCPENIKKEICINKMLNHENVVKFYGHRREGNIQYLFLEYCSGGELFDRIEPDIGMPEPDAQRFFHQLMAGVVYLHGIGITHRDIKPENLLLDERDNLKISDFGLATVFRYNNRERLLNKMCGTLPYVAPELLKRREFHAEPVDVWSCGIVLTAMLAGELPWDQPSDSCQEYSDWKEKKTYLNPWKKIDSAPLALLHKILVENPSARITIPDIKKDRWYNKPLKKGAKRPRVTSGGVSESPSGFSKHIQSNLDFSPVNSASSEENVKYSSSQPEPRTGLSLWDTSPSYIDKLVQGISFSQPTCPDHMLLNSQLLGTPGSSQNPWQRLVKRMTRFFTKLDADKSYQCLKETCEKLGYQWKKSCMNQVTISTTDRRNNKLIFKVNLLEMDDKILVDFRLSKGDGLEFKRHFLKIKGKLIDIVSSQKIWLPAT

[10] = biological target: T2, Mitogen-activated protein kinase kinase kinase kinase 2 (Homo sapiens) (UniProt Q12851); assay: Inhibition of human MAP4K2 assessed as residual activity at 1 uM using 3xChocktide-PKC as substrate in presence of 33P-ATP by ProQinase assay relative to control
T2 sequence (whole entry): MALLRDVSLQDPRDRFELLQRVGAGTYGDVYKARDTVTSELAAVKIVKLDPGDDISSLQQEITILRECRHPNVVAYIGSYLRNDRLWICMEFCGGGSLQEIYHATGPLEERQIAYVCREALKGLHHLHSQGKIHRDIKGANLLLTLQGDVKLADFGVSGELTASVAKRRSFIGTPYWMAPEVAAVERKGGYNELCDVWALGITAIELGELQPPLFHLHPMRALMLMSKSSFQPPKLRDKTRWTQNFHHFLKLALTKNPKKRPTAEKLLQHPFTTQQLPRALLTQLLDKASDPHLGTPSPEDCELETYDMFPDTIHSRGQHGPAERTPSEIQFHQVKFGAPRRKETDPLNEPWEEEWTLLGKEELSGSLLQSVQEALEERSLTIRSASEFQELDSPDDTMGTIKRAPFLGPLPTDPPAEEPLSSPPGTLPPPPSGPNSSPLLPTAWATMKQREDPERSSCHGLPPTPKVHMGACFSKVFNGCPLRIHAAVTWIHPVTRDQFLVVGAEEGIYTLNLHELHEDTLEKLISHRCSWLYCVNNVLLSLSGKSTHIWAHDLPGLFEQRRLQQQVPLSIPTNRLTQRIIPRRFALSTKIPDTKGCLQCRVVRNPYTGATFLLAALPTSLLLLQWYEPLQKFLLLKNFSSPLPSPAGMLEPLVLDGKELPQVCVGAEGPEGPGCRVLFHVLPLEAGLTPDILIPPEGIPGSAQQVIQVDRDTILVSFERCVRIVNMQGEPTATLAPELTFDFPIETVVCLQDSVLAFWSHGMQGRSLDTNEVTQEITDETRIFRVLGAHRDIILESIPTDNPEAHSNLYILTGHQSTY

[11] = biological target: MAP kinase-activated protein kinase 3 (Homo sapiens) (UniProt Q16644); assay: Inhibition of human MAPKAPK3 assessed as residual activity at 1 uM using bio-4xCHKT as substrate in presence of 33P-ATP by ProQinase assay relative to control
Homo sapiens = species on record: Homo sapiens; assay: Inhibition of human PKA assessed as residual activity at 1 uM using bio-4xCHKT as substrate in presence of 33P-ATP by ProQinase assay relative to control
[12] = biological target: Protein kinase C gamma type (Homo sapiens) (UniProt P05129); assay: Inhibition of human PKCgamma assessed as residual activity at 1 uM using 3xChocktide-PKC(19-31) as substrate in presence of 33P-ATP by ProQinase assay relative to control
[13] = biological target: Protein kinase C zeta type (Homo sapiens) (UniProt Q05513); assay: Inhibition of human PKCzeta assessed as residual activity at 1 uM using 3xChocktide-PKC(19-31) as substrate in presence of 33P-ATP by ProQinase assay relative to control

Serine/threonine-protein kinase MAK (Homo sapiens), sequence (P20794 whole entry, the tested form may be a part): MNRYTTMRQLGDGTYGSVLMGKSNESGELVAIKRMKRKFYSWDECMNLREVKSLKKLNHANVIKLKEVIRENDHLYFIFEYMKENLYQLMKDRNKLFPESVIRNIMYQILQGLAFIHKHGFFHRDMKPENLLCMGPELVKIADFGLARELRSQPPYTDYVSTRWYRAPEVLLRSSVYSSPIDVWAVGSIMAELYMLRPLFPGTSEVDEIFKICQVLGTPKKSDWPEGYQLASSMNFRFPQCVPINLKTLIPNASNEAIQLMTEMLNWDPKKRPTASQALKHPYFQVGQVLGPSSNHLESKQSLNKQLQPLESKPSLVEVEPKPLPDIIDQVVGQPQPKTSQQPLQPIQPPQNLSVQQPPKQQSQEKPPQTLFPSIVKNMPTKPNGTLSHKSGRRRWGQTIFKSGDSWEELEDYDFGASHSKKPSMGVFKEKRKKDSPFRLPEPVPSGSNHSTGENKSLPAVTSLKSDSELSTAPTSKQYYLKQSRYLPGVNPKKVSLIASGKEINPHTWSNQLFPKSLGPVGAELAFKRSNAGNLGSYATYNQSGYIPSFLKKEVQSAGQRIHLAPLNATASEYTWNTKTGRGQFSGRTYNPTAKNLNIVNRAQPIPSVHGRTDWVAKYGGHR
MAP kinase-activated protein kinase 3 (Homo sapiens), sequence (Q16644 whole entry, looked up): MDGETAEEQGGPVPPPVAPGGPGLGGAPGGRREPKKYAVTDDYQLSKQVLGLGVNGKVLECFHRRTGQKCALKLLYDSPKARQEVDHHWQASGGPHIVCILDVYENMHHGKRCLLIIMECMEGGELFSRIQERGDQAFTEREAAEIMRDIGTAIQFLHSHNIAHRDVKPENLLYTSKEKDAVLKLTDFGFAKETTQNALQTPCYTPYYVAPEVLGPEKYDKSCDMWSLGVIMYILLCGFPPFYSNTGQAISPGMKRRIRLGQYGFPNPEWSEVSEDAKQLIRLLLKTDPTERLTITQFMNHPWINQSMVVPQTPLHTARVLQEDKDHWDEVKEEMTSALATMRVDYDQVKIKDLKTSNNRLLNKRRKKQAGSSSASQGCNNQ
eIF-2-alpha kinase GCN2 (Homo sapiens), Q9P2K8 [S808G], sequence (Q9P2K8 whole entry S808G, the tested form may be a part): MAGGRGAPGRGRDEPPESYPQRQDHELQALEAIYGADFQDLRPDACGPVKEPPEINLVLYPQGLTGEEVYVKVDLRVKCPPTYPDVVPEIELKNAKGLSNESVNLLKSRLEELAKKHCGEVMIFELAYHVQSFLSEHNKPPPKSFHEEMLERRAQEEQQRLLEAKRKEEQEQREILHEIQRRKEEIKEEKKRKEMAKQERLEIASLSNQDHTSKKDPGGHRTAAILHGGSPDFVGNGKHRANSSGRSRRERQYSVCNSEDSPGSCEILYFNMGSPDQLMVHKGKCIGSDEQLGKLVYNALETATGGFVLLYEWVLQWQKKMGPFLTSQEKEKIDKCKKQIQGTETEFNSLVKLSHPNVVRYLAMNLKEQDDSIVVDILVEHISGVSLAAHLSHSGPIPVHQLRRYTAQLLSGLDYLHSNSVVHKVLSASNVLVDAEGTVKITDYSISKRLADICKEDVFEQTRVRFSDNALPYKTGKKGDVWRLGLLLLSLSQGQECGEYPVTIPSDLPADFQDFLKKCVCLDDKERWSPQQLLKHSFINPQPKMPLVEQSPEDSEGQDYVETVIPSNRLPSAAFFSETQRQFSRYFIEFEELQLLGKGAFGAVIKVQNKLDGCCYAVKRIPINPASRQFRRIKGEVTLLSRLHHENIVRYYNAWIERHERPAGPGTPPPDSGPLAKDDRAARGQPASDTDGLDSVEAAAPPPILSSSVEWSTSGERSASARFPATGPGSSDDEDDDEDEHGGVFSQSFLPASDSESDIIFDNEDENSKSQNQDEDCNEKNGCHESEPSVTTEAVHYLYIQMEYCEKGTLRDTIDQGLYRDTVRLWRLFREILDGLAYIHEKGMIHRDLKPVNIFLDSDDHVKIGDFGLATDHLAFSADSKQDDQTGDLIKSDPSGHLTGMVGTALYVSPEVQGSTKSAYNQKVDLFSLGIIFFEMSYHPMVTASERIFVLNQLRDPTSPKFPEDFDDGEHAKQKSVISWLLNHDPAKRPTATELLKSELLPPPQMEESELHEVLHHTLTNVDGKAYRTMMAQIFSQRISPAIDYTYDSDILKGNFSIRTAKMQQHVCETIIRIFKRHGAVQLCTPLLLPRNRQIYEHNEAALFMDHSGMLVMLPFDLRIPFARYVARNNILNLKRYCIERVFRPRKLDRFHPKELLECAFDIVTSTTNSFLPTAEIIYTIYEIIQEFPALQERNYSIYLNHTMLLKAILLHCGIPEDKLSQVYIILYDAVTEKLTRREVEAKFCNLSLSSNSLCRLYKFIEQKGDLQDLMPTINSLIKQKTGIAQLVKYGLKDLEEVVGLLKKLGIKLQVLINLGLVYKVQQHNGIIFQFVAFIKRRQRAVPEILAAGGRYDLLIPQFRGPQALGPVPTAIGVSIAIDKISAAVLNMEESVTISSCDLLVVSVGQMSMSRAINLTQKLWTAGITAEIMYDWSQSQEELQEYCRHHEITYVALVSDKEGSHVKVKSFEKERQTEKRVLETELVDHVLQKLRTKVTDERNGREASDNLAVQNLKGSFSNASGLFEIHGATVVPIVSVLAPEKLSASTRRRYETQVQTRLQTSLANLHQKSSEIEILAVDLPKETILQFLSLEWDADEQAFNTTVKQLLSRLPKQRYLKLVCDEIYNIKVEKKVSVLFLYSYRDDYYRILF
Ephrin type-A receptor 7 (Homo sapiens), sequence (Q15375 28-998 limits assumed): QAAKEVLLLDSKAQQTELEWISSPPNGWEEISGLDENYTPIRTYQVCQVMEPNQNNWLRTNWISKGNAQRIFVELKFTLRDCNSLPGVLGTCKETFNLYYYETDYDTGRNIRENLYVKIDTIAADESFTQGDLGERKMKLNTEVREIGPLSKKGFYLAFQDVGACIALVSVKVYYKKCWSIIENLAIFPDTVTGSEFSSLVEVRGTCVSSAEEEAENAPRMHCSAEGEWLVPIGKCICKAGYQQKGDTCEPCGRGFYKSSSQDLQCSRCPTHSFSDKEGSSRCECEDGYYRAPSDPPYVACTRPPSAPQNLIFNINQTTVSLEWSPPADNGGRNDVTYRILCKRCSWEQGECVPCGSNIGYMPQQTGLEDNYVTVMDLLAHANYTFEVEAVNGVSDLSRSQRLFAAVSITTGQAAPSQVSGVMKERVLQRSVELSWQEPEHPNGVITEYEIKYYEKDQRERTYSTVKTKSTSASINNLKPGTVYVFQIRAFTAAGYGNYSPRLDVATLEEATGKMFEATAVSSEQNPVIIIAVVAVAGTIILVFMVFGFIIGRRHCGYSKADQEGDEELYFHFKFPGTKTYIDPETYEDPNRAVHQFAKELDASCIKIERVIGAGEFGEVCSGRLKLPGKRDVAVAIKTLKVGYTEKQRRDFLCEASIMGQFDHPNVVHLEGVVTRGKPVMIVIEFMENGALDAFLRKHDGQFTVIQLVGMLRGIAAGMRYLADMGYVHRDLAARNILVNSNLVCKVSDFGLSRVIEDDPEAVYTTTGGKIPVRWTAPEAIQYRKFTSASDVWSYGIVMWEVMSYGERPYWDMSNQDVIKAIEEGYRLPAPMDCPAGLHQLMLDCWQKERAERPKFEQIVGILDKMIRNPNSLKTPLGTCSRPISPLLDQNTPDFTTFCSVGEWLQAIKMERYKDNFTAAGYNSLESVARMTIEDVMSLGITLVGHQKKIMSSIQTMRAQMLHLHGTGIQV
Ribosomal protein S6 kinase alpha-6 (Homo sapiens), sequence (Q9UK32 whole entry, the tested form may be a part): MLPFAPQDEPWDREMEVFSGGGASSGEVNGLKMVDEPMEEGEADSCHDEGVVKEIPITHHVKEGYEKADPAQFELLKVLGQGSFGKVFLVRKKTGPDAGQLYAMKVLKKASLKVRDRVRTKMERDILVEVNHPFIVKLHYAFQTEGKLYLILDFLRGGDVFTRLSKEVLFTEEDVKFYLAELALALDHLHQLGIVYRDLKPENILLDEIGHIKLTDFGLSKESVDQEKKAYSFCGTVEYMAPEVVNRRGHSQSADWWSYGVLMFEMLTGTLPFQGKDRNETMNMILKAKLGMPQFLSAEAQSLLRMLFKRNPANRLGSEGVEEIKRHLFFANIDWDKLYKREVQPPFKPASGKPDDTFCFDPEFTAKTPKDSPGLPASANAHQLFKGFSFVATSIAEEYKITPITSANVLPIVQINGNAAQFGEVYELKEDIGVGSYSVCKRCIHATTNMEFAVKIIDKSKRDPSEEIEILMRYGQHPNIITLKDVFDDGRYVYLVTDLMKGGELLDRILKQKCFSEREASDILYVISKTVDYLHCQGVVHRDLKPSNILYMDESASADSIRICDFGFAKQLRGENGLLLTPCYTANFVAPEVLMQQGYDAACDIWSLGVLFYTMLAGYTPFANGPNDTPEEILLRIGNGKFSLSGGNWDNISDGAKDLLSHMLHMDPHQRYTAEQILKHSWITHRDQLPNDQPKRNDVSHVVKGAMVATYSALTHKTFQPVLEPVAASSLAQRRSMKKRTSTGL
Cyclin-dependent kinase 7 (Homo sapiens), sequence (P50613 whole entry): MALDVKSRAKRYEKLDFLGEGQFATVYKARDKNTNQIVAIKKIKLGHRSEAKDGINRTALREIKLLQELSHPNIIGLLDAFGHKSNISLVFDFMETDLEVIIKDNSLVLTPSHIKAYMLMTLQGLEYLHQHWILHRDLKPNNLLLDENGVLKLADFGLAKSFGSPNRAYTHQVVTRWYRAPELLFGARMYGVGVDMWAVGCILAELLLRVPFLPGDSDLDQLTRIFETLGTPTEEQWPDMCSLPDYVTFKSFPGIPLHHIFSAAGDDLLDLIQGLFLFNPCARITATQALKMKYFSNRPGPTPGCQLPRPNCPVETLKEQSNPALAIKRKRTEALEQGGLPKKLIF

In the case of O=C1c2ccc(Nc3ccc(F)cc3F)cc2CCc2ccc(OC[C@H](O)CO)cc21 [Skepinone-L], the Activity [1] was 100%, the Activity [2] was 89% and the Activity [3] was 100%. It also gave an Activity [4] of 84%, an Activity [5] of 95% and an Activity [6] of 90%. The Activity [7] was 100%, the Activity [8] was 135% and the Activity [9] was 94%. For the same compound, the Activity [10] was 89%, the Activity [11] was 95% and the Activity (Homo sapiens) was 94%. It also gave an Activity [12] of 99% and an Activity [13] of 109%.
